Test systems include MOLT-4 leukemia; HOP-62 NSCLC; K-562 leukemia; HOP-92 NSCLC; NCI-H522 lung; MALME-3M melanoma; A549 NSCLC; HT29 colon; UO-31 renal; SK-OV-3 ovarian.
Assay in all cases: inhibition of tumour cell growth, NCI panel, 48 h

Molecules are shown by their SMILES. Where “and” joins values, the source holds several entries; their conditions need not be identical. Identical values can stand only once.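 How tested: cells in 96-well plates exposed to compound for 48 hours at five concentrations. GI50 = concentration required for 50% inhibition of growth. TGI marks complete inhibition of growth.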 Where only a bound is given, the exact number is not on record here.

Turning to `CCOC(=O)c1s/c(=N\Nc2nc3ccccc3cc2C2OCCO2)n(Cc2ccccc2)c1C`, the TGI in the experiment on MOLT-4 leukemia, with HOP-62 NSCLC, with K-562 leukemia, in the experiment on HOP-92 NSCLC, in the experiment on NCI-H522 lung and with MALME-3M melanoma was more than 100 µM throughout. Moreover, the TGI in the experiment on A549 NSCLC, in the experiment with HT29 colon, with UO-31 renal and in the experiment on SK-OV-3 ovarian was more than 100 µM each time.
In the case of `COc1ccc2cc(-c3c(-c4ccncc4)nc(-c4ccc(S(C)(=O)=O)cc4C)n3C)ccc2c1`, the GI50 with MOLT-4 leukemia was 6.91 µM; in the experiment with HOP-62 NSCLC, 8.81 µM; in the experiment with K-562 leukemia, 6.88 µM; in the experiment on HOP-92 NSCLC, 5.16 µM; in the experiment on NCI-H522 lung, 4.45 µM; with MALME-3M melanoma it was 4.9 µM. Moreover, the GI50 was 9.04 µM in the experiment on A549 NSCLC, 8.37 µM with HT29 colon, 4.4 µM in the experiment with UO-31 renal and 6.5 µM in the experiment with SK-OV-3 ovarian. The TGI was more than 25 µM in the experiment with MOLT-4 leukemia; more than 23.9 µM in the experiment on HOP-62 NSCLC; more than 25 µM in the experiment on K-562 leukemia; 24.4 µM with HOP-92 NSCLC; 19 µM in the experiment with NCI-H522 lung; more than 25 µM in the experiment with MALME-3M melanoma. The TGI in the experiment on A549 NSCLC is more than 25 µM; in the experiment on HT29 colon, more than 25 µM; in the experiment on UO-31 renal it was 20.2 µM; with SK-OV-3 ovarian, 16.7 µM.
In the case of `N#CCCN(CCC#N)c1ccc(C(Sc2ccccc2)C(NC(=O)c2cc([N+](=O)[O-])ccc2Cl)C(=O)Sc2ccccc2)cc1` (configuration not stated), the GI50 was 0.565 µM in the experiment with MOLT-4 leukemia; 3.87 µM with HOP-62 NSCLC; 1.71 µM in the experiment with K-562 leukemia; 0.954 µM in the experiment on A549 NSCLC; 2.59 µM with HT29 colon; 1.11 µM in the experiment on UO-31 renal. The GI50 with SK-OV-3 ovarian was 7.8 µM. Moreover, the TGI in the experiment with MOLT-4 leukemia is 2.56 µM and 2.95 µM; with HOP-62 NSCLC, 12 µM; in the experiment with K-562 leukemia it was 7.42 µM and 6.69 µM; with HOP-92 NSCLC, 18.7 µM; with NCI-H522 lung it was 5.5 µM and 1.6 µM; in the experiment with MALME-3M melanoma it was 22 µM. For the same compound, the TGI in the experiment on A549 NSCLC is 6.47 µM and 13.2 µM; in the experiment with HT29 colon, 7.58 µM; in the experiment on UO-31 renal, 4.77 µM; in the experiment with SK-OV-3 ovarian, 13.2 µM.
As for `Cc1cc2c(cc1C)N(C(=O)CCl)CCN2C(=O)CCl`, the GI50 with MOLT-4 leukemia was 0.367 µM; in the experiment on HOP-62 NSCLC, 1.71 µM; in the experiment with K-562 leukemia it was 0.378 µM; with HOP-92 NSCLC, 1.6 µM; with NCI-H522 lung, 0.178 µM; with MALME-3M melanoma, 1.57 µM. Also, the GI50 in the experiment with A549 NSCLC was 2.09 µM; in the experiment with HT29 colon, 0.301 µM; in the experiment on UO-31 renal, 1.52 µM; in the experiment with SK-OV-3 ovarian, 1.9 µM. Also, the TGI worked out at 1.74 µM in the experiment on MOLT-4 leukemia; 3.37 µM in the experiment with HOP-62 NSCLC; 2 µM in the experiment on K-562 leukemia; 3.2 µM in the experiment on HOP-92 NSCLC; 0.348 µM in the experiment with NCI-H522 lung; 4.5 µM with MALME-3M melanoma. Also, the TGI in the experiment with A549 NSCLC turned out to be 4.29 µM; in the experiment on HT29 colon it was 0.943 µM; in the experiment with UO-31 renal it was 3.48 µM; with SK-OV-3 ovarian, 3.98 µM.
`CCC[n+]1cc2cc(OC)c(OC)cc2c2c1-c1cc3c(cc1C2)OCO3`: the GI50 in the experiment on MOLT-4 leukemia is 1.92 µM; in the experiment on HOP-62 NSCLC, 3.92 µM; with K-562 leukemia, 3.03 µM; with HOP-92 NSCLC, 10.1 µM; in the experiment on NCI-H522 lung, 0.0792 µM; in the experiment on MALME-3M melanoma, 1.65 µM. The GI50 with A549 NSCLC is 18.3 µM; in the experiment on HT29 colon it was 5.03 µM; in the experiment with UO-31 renal it was 13.1 µM; in the experiment on SK-OV-3 ovarian it was 25.6 µM. Also, the TGI in the experiment with MOLT-4 leukemia is 11.4 µM; with HOP-62 NSCLC, 19.7 µM; with K-562 leukemia it was more than 20.5 µM; in the experiment with HOP-92 NSCLC, 40.6 µM; with NCI-H522 lung it was 1.71 µM; with MALME-3M melanoma, 4.01 µM. Also, the TGI was 35.5 µM in the experiment with A549 NSCLC, more than 34.6 µM in the experiment with HT29 colon, 35.1 µM in the experiment on UO-31 renal and 52.3 µM in the experiment on SK-OV-3 ovarian.
As for `COc1ccc(C2=NN(C=O)C(c3cccc(Nc4ccnc5cc(Cl)ccc45)c3)C2)cc1` (configuration not stated), the GI50 in the experiment with MOLT-4 leukemia was 2.37 µM; with HOP-62 NSCLC it was 2.11 µM; in the experiment on K-562 leukemia it was 0.511 µM; with HOP-92 NSCLC, 3.41 µM; with NCI-H522 lung it was 1.33 µM; in the experiment with MALME-3M melanoma, 2.04 µM. Moreover, the GI50 in the experiment with A549 NSCLC was 4.63 µM; with HT29 colon it was 1.65 µM; in the experiment on UO-31 renal, 3.25 µM; in the experiment on SK-OV-3 ovarian, 3.33 µM. For the same compound, the TGI with MOLT-4 leukemia is 11.9 µM; in the experiment with HOP-62 NSCLC, 16.6 µM; with K-562 leukemia it was 11.3 µM; in the experiment on HOP-92 NSCLC it was more than 100 µM; in the experiment with NCI-H522 lung it was 12.7 µM; in the experiment on MALME-3M melanoma, 18.9 µM. Further, the TGI in the experiment with A549 NSCLC was more than 100 µM; in the experiment with HT29 colon it was 9.7 µM; in the experiment on UO-31 renal, 64.6 µM; with SK-OV-3 ovarian, 23.3 µM.
`COc1ccc(/C=C\c2cc(OC)c(O[Si](C)(C)C(C)(C)C)c(OC)c2)cc1`: the TGI was 38.8 µM in the experiment with MOLT-4 leukemia; more than 100 µM with HOP-62 NSCLC; more than 100 µM in the experiment on K-562 leukemia; more than 100 µM with HOP-92 NSCLC; more than 100 µM in the experiment with NCI-H522 lung; more than 100 µM with MALME-3M melanoma. The TGI with A549 NSCLC, with HT29 colon, in the experiment with UO-31 renal and in the experiment with SK-OV-3 ovarian was more than 100 µM each time.
Take `O=C(c1ccncc1)n1nc(-c2ccccc2)c(N=Nc2ccccc2[N+](=O)[O-])c1-c1ccccc1`: the TGI in the experiment on MOLT-4 leukemia, with HOP-62 NSCLC, in the experiment on K-562 leukemia, in the experiment with HOP-92 NSCLC, in the experiment with NCI-H522 lung and in the experiment on MALME-3M melanoma was more than 100 µM in each case. In addition, the TGI with A549 NSCLC is more than 100 µM; in the experiment on HT29 colon, more than 100 µM; with UO-31 renal, 79.9 µM; in the experiment with SK-OV-3 ovarian, more than 100 µM.

(Values after PubChem BioAssay (NCI).)
